Results as given in PubChem BioAssay (NCI).
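All cell lines were grown in 96-well plates and treated with compound for 48 hours. At the TGI there is no net growth.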

Legend:
Experiment in all cases: NCI tumour cell line growth inhibition, 48 h
[1] = test system: OVCAR-8 ovarian
[2] = test system: SN12C renal
[3] = test system: NCI-H522 lung
[4] = test system: SR leukemia
[5] = test system: UO-31 renal
[6] = test system: U251 CNS
[7] = test system: SNB-78 CNS
[8] = test system: SW-620 colon
[9] = test system: HCT-15 colon
[10] = test system: HCT-116 colon
[11] = test system: RPMI-8226 leukemia
[12] = test system: HT29 colon
[13] = test system: SF-268 CNS
[14] = test system: OVCAR-4 ovarian
[15] = test system: LOX IMVI melanoma
[16] = test system: SF-295 CNS
[17] = test system: MOLT-4 leukemia
[18] = test system: COLO 205 colon
[19] = test system: TK-10 renal
[20] = test system: OVCAR-3 ovarian
[21] = test system: 786-0 renal
[22] = test system: DMS 273 small cell lung
[23] = test system: HCC-2998 colon
[24] = test system: IGROV1 ovarian
[25] = test system: HOP-62 NSCLC
[26] = test system: UACC-62 melanoma
[27] = test system: SK-MEL-28 melanoma
[28] = test system: NCI-H23 lung
[29] = test system: A549 NSCLC
[30] = test system: ACHN renal
[31] = test system: LXFL 529 NSCLC
[32] = test system: SK-MEL-2 melanoma
[33] = test system: DLD-1 colon
[34] = test system: EKVX NSCLC
[35] = test system: KM20L2 colon
[36] = test system: DMS 114 small cell lung
[37] = test system: SK-MEL-5 melanoma
[38] = test system: SNB-75 CNS
[39] = test system: UACC-257 melanoma
[40] = test system: HOP-92 NSCLC
[41] = test system: MALME-3M melanoma
[42] = test system: M19-MEL melanoma
[43] = test system: NCI-H226 lung
[44] = test system: NCI-H460 lung
[45] = test system: K-562 leukemia
[46] = test system: SF-539 CNS

Question: Which TGI [1] does the source give for `COc1cc2c(c(OC)c1OC)-c1ccc(SC)c(=O)cc1[C@@H](NC(=O)c1ccc(C#N)cc1)CC2` here?
Answer: 12.9 µM

Question: What about the TGI [2] of the same compound?
Answer: > 77.8 µM

Question: What about the TGI [3] of the same compound?
Answer: < 10 nM

Question: What about the TGI [4] of the same compound?
Answer: > 100 µM

Question: What about the TGI [5] of the same compound?
Answer: > 100 µM

Question: And the TGI [6]?
Answer: < 31.6 nM

Question: What about the TGI [7] of the same compound?
Answer: 83.7 µM

Question: And the TGI [8]?
Answer: > 100 µM

Question: And the TGI [9]?
Answer: > 100 µM

Question: And the TGI [10]?
Answer: 12.6 µM

Question: What about the TGI [11] of the same compound?
Answer: > 100 µM

Question: And the TGI [12]?
Answer: < 10 nM

Question: What about the TGI [13] of the same compound?
Answer: > 48.7 µM

Question: And the TGI [14]?
Answer: > 100 µM

Question: What about the TGI [15] of the same compound?
Answer: 36.7 µM

Question: What about the TGI [16] of the same compound?
Answer: < 10 nM

Question: And the TGI [17]?
Answer: > 53.8 µM

Question: And the TGI [18]?
Answer: < 10 nM

Question: And the TGI [19]?
Answer: > 100 µM

Question: What about the TGI [20] of the same compound?
Answer: < 10.8 nM

Question: What about the TGI [21] of the same compound?
Answer: 20.9 µM

Question: And the TGI [22]?
Answer: > 46.3 µM

Question: And the TGI [23]?
Answer: < 10 nM

Question: What about the TGI [24] of the same compound?
Answer: > 100 µM

Question: What about the TGI [25] of the same compound?
Answer: 56.4 µM

Question: And the TGI [26]?
Answer: > 100 µM

Question: And the TGI [27]?
Answer: > 100 µM

Question: And the TGI [28]?
Answer: < 10 nM

Question: And the TGI [29]?
Answer: > 100 µM

Question: And the TGI [30]?
Answer: > 100 µM

Question: And the TGI [31]?
Answer: 18.3 µM

Question: And the TGI [32]?
Answer: 6.58 µM

Question: What about the TGI [33] of the same compound?
Answer: > 100 µM

Question: What about the TGI [34] of the same compound?
Answer: > 100 µM

Question: And the TGI [35]?
Answer: < 10 nM

Question: And the TGI [36]?
Answer: < 10 nM

Question: And the TGI [37]?
Answer: < 10 nM

Question: What about the TGI [38] of the same compound?
Answer: 92.4 µM

Question: And the TGI [39]?
Answer: > 100 µM

Question: What about the TGI [40] of the same compound?
Answer: 10.6 µM

Question: What about the TGI [41] of the same compound?
Answer: 96.9 µM

Question: And the TGI [42]?
Answer: > 100 µM

Question: And the TGI [43]?
Answer: < 10 nM

Question: What about the TGI [44] of the same compound?
Answer: < 10 nM

Question: And the TGI [45]?
Answer: > 100 µM

Question: What about the TGI [46] of the same compound?
Answer: < 10 nM
